IC50 data for 34 molecules are collected here from patent publication US20050009840A1 (SUGEN, INC., priority 2003, published 2005).

This assay concerns the target T1, Met kinase domain (GST fusion protein) (Homo sapiens, UniProt P08581).
T1 construct: Purified GST fusion protein containing the Met kinase domain
Nature of the assay: Met transphosphorylation assay (ELISA, poly(glu-tyr) substrate).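 Further: Cell-free ELISA with plate-bound poly(Glu:Tyr 4:1) phosphorylated by GST-fused Met kinase domain plus ATP and Mn2+, phosphotyrosine detected by anti-phosphotyrosine antibody with HRP and ABTS read-out.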 It counts as biochemical. Particulars: read-out: Met IC50. (In general: ELISA stands for enzyme-linked immunosorbent assay.)

[1] abbreviates: plain numbers in column Met IC50 (μM) of Table 2.

Read-outs that look alike come from different tables or passages of the source.

T1 sequence (P08581 1078-1345 limits assumed): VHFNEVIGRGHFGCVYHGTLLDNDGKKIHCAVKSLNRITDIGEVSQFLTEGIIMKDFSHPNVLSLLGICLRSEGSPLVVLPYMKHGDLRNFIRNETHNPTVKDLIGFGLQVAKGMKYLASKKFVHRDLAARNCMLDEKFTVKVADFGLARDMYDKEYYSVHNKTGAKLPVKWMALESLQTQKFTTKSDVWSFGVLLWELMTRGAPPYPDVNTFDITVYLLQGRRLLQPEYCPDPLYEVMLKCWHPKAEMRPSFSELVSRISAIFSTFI
Procedure: General procedure is as follows: a compound is introduced to cells expressing the test kinase, either naturally or recombinantly, for a selected period of time after which, if the test kinase is a receptor, a ligand known to activate the receptor is added. The cells are lysed and the lysate is transferred to the wells of an ELISA plate previously coated with a specific antibody recognizing the substrate of the enzymatic phosphorylation reaction. Non-substrate components of the cell lysate are washed away and the amount of phosphorylation on the substrate is detected with an antibody specifically recognizing phosphotyrosine compared with control cells that were not contacted with a test compound.
Met Transphosphorylation Assay
This assay is used to measure phosphotyrosine levels on a poly(glutamic acid:tyrosine, 4:1) substrate as a means for identifying agonists/antagonists of met transphosphorylation of the substrate.
PBS, Gibco Catalog # 450-1300EB • 4. 50 mM HEPES • 5. […] Purified GST fusion protein containing the Met kinase domain, SUGEN, Inc. • 7. TBST Buffer. • 8. 10% aqueous (MilliQue H2O) DMSO. • 9. […] 2× Kinase Dilution Buffer: for 100 mL, mix 10 mL 1M HEPESat pH 7.5 with 0.4 mL 5% BSA/PBS, 0.2 mL 0.1 M sodium orthovanadate and 1 mL 5M sodium chloride in 88.4 mL dH2O. • 11. 4× ATP Reaction Mixture: for 10 mL, mix 0.4 mL 1 M manganese chloride and 0.02 mL 0.1 M ATP in 9.56 mL dH2O. • 12. 4× Negative Controls Mixture: for 10 mL, mix 0.4 mL 1 M manganese chloride in 9.6 mL dH2O. • 13. […] 500 mM EDTA. • 15. Antibody Dilution Buffer: for 100 mL, mix 10 mL 5% BSA/PBS, 0.5 mL 5% Carnation® Instant Milk in PBS and 0.1 mL 0.1 M sodium orthovanadate in 88.4 mL TBST. • 16. Rabbit polyclonal antophosphotyrosine antibody, SUGEN, Inc. • 17. Goat anti-rabbit horseradish peroxidase conjugated antibody, Biosource, Inc. • 18. ABTS Solution: for 1 L, mix 19.21 g citric acid, 35.49 g Na2HPO4 and 500 mg ABTS with sufficient dH2O to make 1 L. • 19. ABTS/H2O2: mix 15 mL ABST solution with 2μL H2O2 five minutes before use. • 20. 0.2 M HCl Procedure: • 1. Coat ELISA plates with 2 μg Poly(Glu-Tyr) in 100 μL PBS, hold-overnight at 4° C. • 2. Block plate with 150 μL of 5% BSA/PBS for 60 min. • 3. Wash plate twice with PBS then once with 50 mM Hepes buffer pH 7.4. • 4. Add 50 μl of the diluted kinase to all wells. (Purified kinase is diluted with Kinase Dilution Buffer. Final concentration should be 10 ng/well.) • 5. Add 25 μL of the test compound (in 4% DMSO) or DMSO alone (4% in dH2O) for controls to plate. • 6. Incubate the kinase/compound mixture for 15 minutes. • 7. Add 25 μL of 40 mM MnCl2 to the negative control wells. • 8. Add 25 μL ATP/MnCl2 mixture to the all other wells (except the negative controls). Incubate for 5 min. • 9. Add 25 μL 500 mM EDTA to stop reaction. • 10. Wash plate 3× with TBST. • 11. Add 100 μL rabbit polyclonal anti-Ptyr diluted 1:10,000 in Antibody Dilution Buffer to each well. Incubate, with shaking, at room temperature for one hour. • 12. Wash plate 3× with TBST. • 13. […] Add 100 μL per well and incubate at room temperature, with shaking, for one hour. • 14. Wash plate 1× with PBS. • 15. Add 100 μl of ABTS/H2O2 solution to each well. • 16. If necessary, stop the development reaction with the addition of 100 μl of 0.2M HCl per well. • 17.

Turning to `CC(Oc1cc(-c2ccc(NC(=O)NCCN3CCOCC3)cc2)cnc1N)c1c(F)ccc(F)c1Cl` (stereo not shown) [Example I-384, 1-(4-{6-Amino-5-[1-(2-chloro-3,6-difluoro-phenyl)-ethoxy]-pyridin-3-yl}-phenyl)-3-(2-morpholin-4-yl-ethyl)-urea], under setting [1], the IC50 (as a rule, the concentration at which inhibition is half-maximal) was 0.13 µM.

Regarding `Nc1ncc(-c2ccc(OCC(=O)O)cc2)cc1OCc1c(Cl)cccc1Cl` [Example I-55, {4-[6-Amino-5-(2,6-dichloro-benzyloxy)-pyridin-3-yl]-phenoxy}-acetic acid], the half-inhibitory concentration (IC50) is 2.41 µM. Consider `CC(Oc1cc(-c2ccc(NS(=O)(=O)CCN3CC[C@@H](O)C3)cc2)cnc1N)c1c(Cl)ccc(F)c1Cl` (stereo partly shown) [Example I-299], for which the 50% inhibitory concentration (IC50) (Table 2) is 0.062 µM.

Turning to `CC(Oc1nc(-c2cccc(C(=O)NC3CCN(C)CC3)c2)cnc1N)c1c(Cl)ccc(F)c1Cl` (stereo not shown) [II-132, 3-{5-Amino-6-[1-(2,6-dichloro-3-fluoro-phenyl)-ethoxy]-pyrazin-2-yl}-N-(1-methyl-piperidin-4-yl)-benzamide], the IC50 was 0.13 µM.

Take `CN(C)[C@H]1CCN(C(=O)c2ccc(-c3cnc(N)c(OCc4ccc(F)cc4Cl)c3)cc2)C1` [Example I-205, {4-[6-Amino-5-(2-chloro-4-fluoro-benzyloxy)-pyridin-3-yl]-phenyl}-[(3S)-3-dimethylamino-pyrrolidin-1-yl]-methanone]: the concentration for half-maximal inhibition (IC50) (Table 2) worked out at 61 µM.

On to `CCN(CC)CCCNC(=O)c1ccc(-c2cnc(N)c(OCc3c(Cl)cccc3Cl)c2)cc1` [Example I-37, 4-[6-Amino-5-(2,6-dichloro-benzyloxy)-pyridin-3-yl]-N-(3-diethylamino-propyl)-benzamide], for which the IC50 was 0.82 µM. In the case of `Nc1ncc(-c2ccc(NS(=O)(=O)CCNC3CC3)cc2)nc1OCc1c(F)ccc(F)c1Cl` [II-20, 2-Cyclopropylamino-ethanesulfonic acid {4-[5-amino-6-(2-chloro-3,6-difluoro-benzyloxy)-pyrazin-2-yl]-phenyl}-amide], the half-maximal inhibitory concentration (IC50) is 1.29 µM. In the case of `Nc1ncc(Br)nc1OCc1c(Cl)cccc1Cl` [II(a), 5-Bromo-3-(2,6-dichloro-benzyloxy)-pyrazin-2-ylamine], the IC50 was over 20 µM. For the molecule `CC(Oc1nc(-c2ccc(C(=O)N3CCC[C@H]3CN3CCCC3)cc2)cnc1N)c1c(Cl)cccc1Cl` (stereo partly drawn) [II-162, (4-{5-Amino-6-[1-(2,6-dichloro-phenyl)-ethoxy]-pyrazin-2-yl}-phenyl)-((S)-2-pyrrolidin-1-ylmethyl-pyrrolidin-1-yl)-methanone], the IC50 is 0.14 µM.

For the molecule `CC(Oc1cc(-c2ccc(C(=O)N3CC[C@H](N)C3)cc2)cnc1N)c1c(F)ccc(F)c1Cl` (stereo partly drawn) [Example I-341, (4-{6-Amino-5-[1-(2-chloro-3,6-difluoro-phenyl)-ethoxy]-pyridin-3-yl}-phenyl)-((S)-3-amino-pyrrolidin-1-yl)-methanone], the concentration for half-maximal inhibition (IC50) (Table 2) worked out at 0.075 µM. Consider `CN1CCN(C(=O)c2cccc(-c3cnc(N)c(OCc4cccc(F)c4C(F)(F)F)n3)c2)CC1` [II-124, {3-[5-Amino-6-(3-fluoro-2-trifluoromethyl-benzylloxy)-pyrazin-2-yl]-phenyl}-(4-methyl-piperazin-1-yl)-methanone], for which the half-maximal inhibitory concentration (IC50) was found to be 0.23 µM. On the same count and under the same terms, in the case of `Nc1ncc(-c2ccc3[nH]c(C(=O)NCCN4CCCC4)cc3c2)cc1OCc1c(Cl)cccc1Cl` [Example I-81, 5-[6-Amino-5-(2,6-dichloro-benzyloxy)-pyridin-3-yl]-1H-indole-2-carboxylic acid (2-pyrrolidin-1-yl-ethyl)-amide] it was 1.2 µM. For `CC(=O)N1CCN(Cc2c[nH]c3ccc(-c4cnc(N)c(OCc5c(Cl)cccc5Cl)c4)cc23)CC1` [Example I-68, 1-(4-{5-[6-Amino-5-(2,6-dichloro-benzyloxy)-pyridin-3-yl]-1H-indol-3-ylmethyl}-piperazin-1-yl)-ethanone], the IC50 amounted to 2.18 µM.

As for `CC(Oc1nc(-c2ccc(NC(=O)N3CCN(C)CC3)cc2)cnc1N)c1c(F)ccc(F)c1Cl` (stereo not shown) [II-185, 4-Methyl-piperazin-1-carboxylic acid (4-{5-amino-6-[1-(2-chloro-3,6-difluoro-phenyl)-ethoxy]-pyrazin-2-yl}-phenyl)-amide], the IC50 was found to be 0.1 µM.

With `CC(Oc1cc(-c2ccc(NC(=O)NCCN3CCCC3)cc2)cnc1N)c1c(Cl)ccc(F)c1Cl` (stereo not shown) [Example I-372, 1-(4-{6-Amino-5-[1-(2,6-dichloro-3-fluoro-phenyl)-ethoxy]-pyridin-3-yl}-phenyl)-3-(2-pyrrolidin-1-yl-ethyl)-urea], under setting [1], the IC50 came to 0.21 µM. Regarding `C[C@@H]1CN(Cc2c[nH]c3ccc(-c4cnc(N)c(OCc5c(F)ccc(F)c5Cl)n4)cc23)C[C@H](C)O1` [II-65, 3-(2-Chloro-3,6-difluoro-benzyloxy)-5-[3-(2,6-dimethyl-morpholin-4-ylmethyl)-1H-indol-5-yl]-pyrazin-2-ylamine], the IC50 came to 2.4 µM. On to `Nc1ncc(-c2ccccc2)cc1OCc1c(F)ccc(Cl)c1F` [Example I-102, 3-(3-Chloro-2,6-difluoro-benzyloxy)-5-phenyl-pyridin-2-ylamine], for which the half-inhibitory concentration (IC50) was 9.6 µM. Regarding `CC(Oc1cc(C#CCNC(=O)NCCN2CCCC2)cnc1N)c1c(Cl)ccc(F)c1Cl` (stereo not shown) [Example I-418, 1-(3-{6-Amino-5-[1-(2,6-dichloro-3-fluoro-phenyl)-ethoxy]-pyridin-3-yl}-prop-2-ynyl)-3-(2-pyrrolidin-1-yl-ethyl)-urea], under setting [1], the IC50 turned out to be 0.052 µM.

Consider `CN(C)[C@H]1CCN(C(=O)c2ccc(-c3cnc(N)c(OCc4ccccc4C#N)c3)cc2)C1` [Example I-163, 2-{2-Amino-5-[4-((3S)-3-dimethylamino-pyrrolidine-1-carbonyl)-phenyl]-pyridin-3-yloxymethyl}-benzonitrile], for which the IC50 was over 20 µM. With `CC(Oc1cc(C#CCNC(N)=O)cnc1N)c1c(Cl)ccc(F)c1Cl` (stereo not shown) [Example I-423, (3-{6-Amino-5-[1-(2,6-dichloro-3-fluoro-phenyl)-pnlethoxy]-pyridin-3-yl}-prop-2-ynyl)-area], the IC50 under setting [1] came to 0.062 µM.

Consider `CC(Oc1nc(-c2cccc(C(=O)N3CCC[C@@H]3CN3CCCC3)c2)cnc1N)c1c(Cl)cccc1Cl` (stereo partly drawn) [II-177, (3-{5-Amino-6-[1-(2,6-dichloro-phenyl)-ethoxy]-pyrazin-2-yl}-phenyl)-((R)-2-pyrrolidin-1-ylmethyl-pyrrolidin-1-yl)-methanone], for which the IC50 was determined as 0.33 µM. As to `CC(Oc1cc(-c2ccc(C(=O)NCCN3CCOCC3)cc2)cnc1N)c1c(F)ccc(F)c1Cl` (stereo not shown) [Example I-331, 4-{6-Amino-5-[1-(2-chloro-3,6-difluoro-phenyl)-ethoxy]-pyridin-3-yl}-N-(2-morpholin-4-yl-ethyl)-benzamide], the concentration for half-maximal inhibition (IC50) (Table 2) stood at 0.13 µM. As to `CC(Oc1cc(-c2cccc(C(=O)N3CCC(N4CCCC4)CC3)c2)cnc1N)c1c(Cl)cccc1Cl` (stereo not shown) [Example I-388, (3-{6-Amino-5-[1-(2,6-dichloro-phenyl)-ethoxy]-pyridin-3-yl}-phenyl)-(4-pyrrolidin-1-yl-piperidin-1-yl)-methanone], under setting [1], the 50% inhibitory concentration (IC50) was 0.1 µM.

For `CC(Oc1cc(-c2ccc(C(=O)NCCN3CCOCC3)cc2)cnc1N)c1c(Cl)cccc1Cl` (stereo not shown) [Example I-401, 4-{6-Amino-5-[1-(2,6-dichloro-phenyl)-ethoxy]-pyridin-3-yl}-N-(2-morpholin-4-yl-ethyl)-benzamide], under setting [1], the IC50 amounted to 0.073 µM. Regarding `CC(Oc1nc(-c2ccc(C(=O)NCCN3CCOCC3)cc2)cnc1N)c1c(Cl)cccc1Cl` (stereo not shown) [II-158, 4-{5-Amino-6-[1-(2,6-dichloro-phenyl)-ethoxy]-pyrazin-2-yl}-N-(2-morpholin-4-yl-ethyl)-benzamide], the half-maximal inhibitory concentration (IC50) came out at 0.32 µM. With `CC(Oc1cc(-c2ccc(NS(C)(=O)=O)cc2)cnc1N)c1c(F)ccc(F)c1Cl` (stereo not shown) [Example I-364, N-(4-{6-Amino-5-[1-(2-chloro-3,6-difluoro-phenyl)-ethoxy]-pyridin-3-yl}-phenyl)-methanesulfonamide], the half-maximal inhibitory concentration (IC50) (Table 2) came to 0.1 µM. With `CC(C)COc1cnc(N)c(OC(C)c2c(F)ccc(F)c2Cl)c1` (stereo not shown) [Example I-537, 3-[1-(2-Chloro-3,6-difluoro-phenyl)-ethoxy]-5-isobutoxy-pyridin-2-ylamine], the concentration for half-maximal inhibition (IC50) under setting [1] came out at 1.2 µM. Take `CC(Oc1nc(-c2ccc(NC(=O)N3CCN(C)CC3)cc2)cnc1N)c1c(Cl)ccc(F)c1Cl` (stereo not shown) [II-189, 4-Methyl-piperazine-1-carboxylic acid (4-{5-amino-6-[1-(2,6-dichloro-3-fluoro-phenyl)-ethoxy]-pyrazin-2-yl}-phenyl)-amide]: the IC50 is 0.074 µM.

For the molecule `CCCOc1cnc(N)c(OC(C)c2c(F)ccc(F)c2Cl)c1` (stereo not shown) [Example I-533, 3-[1-(2-Chloro-3,6-difluoro-phenyl)-ethoxy]-5-propoxy-pyridin-2-ylamine], the IC50 under setting [1] came out at 0.672 µM.

On to `Nc1ncc(-c2ccc3[nH]c(C(=O)NCC(O)CN4CCCC4)cc3c2)cc1OCc1c(Cl)cccc1Cl` (stereo not shown) [Example I-85, 5-[6-Amino-5-(2,6-dichloro-benzyloxy)-pyridin-3-yl]-1H-indole-2-carboxylic acid (2-hydroxy-3-pyrrolidin-1-yl-propyl)-amide], for which the IC50 is 0.7 µM.

With `CC(Oc1cc(-c2cccc(C(=O)NC3CCN(C)CC3)c2)cnc1N)c1c(Cl)ccc(F)c1Cl` (stereo not shown) [Example I-313, 3-{6-Amino-5-[1-(2,6-dichloro-3-fluoro-phenyl)-ethoxy]-pyridin-3-yl}-N-(1-methyl-piperidin-4-yl) benzamide], the IC50 (Table 2) turned out to be 0.069 µM. Turning to `CC(=O)N1CCN(CCNC(=O)c2cccc(-c3cnc(N)c(OCc4cccc(F)c4C(F)(F)F)n3)c2)CC1` [II-126, N-[2-(4-Acetyl-piperazin-1-yl)-ethyl]-3-[5-amino-6-(3-fluoro-2-trifluoromethyl-benzyloxy)-pyrazin-2-yl]-benzamide], the IC50 came to 0.65 µM.

`CC(Oc1nc(-c2cccc(C(=O)NCCN3CCOCC3)c2)cnc1N)c1c(F)ccc(F)c1Cl` (stereo not shown) [II-100, 3-{5-Amino-6-[1-(2-chloro-3,6-difluoro-phenyl)-ethoxy]-pyrazin-2-yl}-N-(2-morpholin-4-yl-ethyl)-benzamide]: the 50% inhibitory concentration (IC50) is 0.31 µM. Regarding `CC(Oc1cc(-c2ccsc2)cnc1N)c1c(Cl)ccc(F)c1Cl` (stereo not shown) [Example I-369, 3-[1-(2,6-Dichloro-3-fluoro-phenyl)-ethoxy]-5-thiophen-3-yl-pyridin-2-ylamine], under setting [1], the half-maximal inhibitory concentration (IC50) was found to be 0.055 µM.
